# Experimental data from patent publication US8404711B2, “5-HT4 receptor agonist compounds for treatment of cognitive disorders” (priority 2009, dated 2013).
# “Also recorded” adds a separate entry of the source. Counter-ions that a name gives are not always drawn.
# Tests used:
# [1] = system: scopolamine-induced cognitive impairment (rat Morris water maze); experiment: rat Morris water maze model, scopolamine-induced cognitive impairment; assay type: in vivo; details: for effect on scopolamine-induced memory impairment: 0.03 mg/kg plus scopolamine 0.5 mg/kg; for effect on ability of rats to learn platform location when administered alone: no scopolamine; for reversal of scopolamine-induced cognitive impairment with coadministered 5-HT4 antagonist: compound 0.1 mg/kg i.p. plus GR125487 1 mg/kg i.p. and scopolamine 0.5 mg/kg
# Description: Adult, male Sprague-Dawley rats (body weight range 275-400 g) were handled by the investigator for approximately 5 minutes one day prior to each study. […] A clear Perspex® platform was located in a fixed position 1 cm below the surface of the water, and 34 cm from the wall of the tank. Four visual cues (A4-sized pictures of different black and white symbols) were equally spaced on the wall of the tank, just above the water surface. Black curtains were placed around the tank and white noise was generated throughout the test. Each rat was released into the water, facing the tank wall, at a designated starting point (i.e., at the north side of the tank), and allowed 60 seconds to locate the submerged platform after each placement. The escape latency (in seconds) between release of the rat into the water and its locating the platform was recorded automatically by means of a video camera (San Diego Instrument, CA) and tracking software (SMART software, San Diego Instrument, CA). […] The rats were allowed to remain on the platform for 30 seconds to observe the external visual cues and pair them with the relative position of the platform. The rats were then taken off the platform and dried gently with a paper towel before repeating the test three more times (from south, then east and finally west starting positions). After the fourth test, each rat was placed under a heating lamp for 5 minutes before being returned to its home cage. The entire procedure was repeated on days 2 and 3. Over the three days of testing, rats learned to associate the location of the submerged platform (and their only means to escape the water) with the visual cues. […] The number of crossings of the previous platform location and the time spent by the rat in each quadrant were recorded. Animals that had learned the location of the platform spent more time in the appropriate quadrant and repeatedly crossed that quadrant. By performing the probe test, false positives could be excluded from the analysis (i.e., rats that had previously located the platform via a strategy independent of the visual cues, such as swimming randomly until a leg hit the platform). No animals were excluded based on conflicting data between the three days of testing and the probe test. […] The following statistical tests were performed on the data: […] A two-way repeated-measures ANOVA, followed by a Bonferroni post-hoc test, was used to compare the mean escape latency for each of the three successive test days, with p<0.05 indicating a statistically significant difference. […] Pat. […] Pat. […] Donepezil hydrochloride was purchased from Changzhou Dahua Imp. and Exp. Corp. Ltd. […] Louis, Mo.) or Spectrum Chemical Mfg. Corp. (Gardena, Calif.). GR125487 sulfamate was purchased from Tocris (Ellisville, Mo.). […] Doses were expressed with respect to the free base weights of each compound.
# [2] = target: human 5-HT4(d) receptor (Homo sapiens, UniProt Q13639); experiment: cell-based
# Description: HEK-293 (human embryonic kidney) cells stably-transfected with human 5-HT4(d) receptor cDNA and human APP695 cDNA (HEK293-5-HT4(d)-APP695) were grown in Dulbecco's Modified Eagles Medium (DMEM) containing D-glucose supplemented with 10% fetal bovine serum, 2 mM GlutaMax-1, and 100 units penicillin (100 μg), and 100 μg/mL streptomycin in a 5% CO2, humidified incubator at 37° C. Cells were grown under continuous selection pressure by the addition of G418 (500 ug/mL) antibiotic.
# HEK293-5-HT4(d)-APP695 cells (3×10^5 cells/well) were serum-starved for 4 hr prior to incubation with agonists for 30 min (unless otherwise stated) at 37° C. The culture medium was aspirated, centrifuged to remove cellular debris and the level of sAPPα determined by Western blot. sAPPα was detected using antibody 6E10 (Signet/Covance) and a goat anti-mouse HRP-conjugated 2° antibody. Immunoreactive bands corresponding to sAPPα were visualized and quantified with ECL substrate (Pierce) and a Fluor Chem HD2 image system (Alpha Innotech). Western blot analysis of samples was conducted in duplicate.
# Potency data are reported as pEC50 values, the negative decadic logarithm of the EC50 value, where EC50 is the effective concentration for a 50% maximal response. […] To determine EC50 values, data from independent experiments were fit simultaneously to a sigmoidal concentration response curve using Graph Pad Prism software (slope constrained to unity).
# [3] = 0.01 mg/kg plus scopolamine 0.5 mg/kg
# [4] = 0.1 mg/kg plus scopolamine 0.5 mg/kg
# [5] = 1 mg/kg plus scopolamine 0.5 mg/kg
# human 5-HT4(d) receptor, sequence (Q13639 1-360 isoform Q13639-3): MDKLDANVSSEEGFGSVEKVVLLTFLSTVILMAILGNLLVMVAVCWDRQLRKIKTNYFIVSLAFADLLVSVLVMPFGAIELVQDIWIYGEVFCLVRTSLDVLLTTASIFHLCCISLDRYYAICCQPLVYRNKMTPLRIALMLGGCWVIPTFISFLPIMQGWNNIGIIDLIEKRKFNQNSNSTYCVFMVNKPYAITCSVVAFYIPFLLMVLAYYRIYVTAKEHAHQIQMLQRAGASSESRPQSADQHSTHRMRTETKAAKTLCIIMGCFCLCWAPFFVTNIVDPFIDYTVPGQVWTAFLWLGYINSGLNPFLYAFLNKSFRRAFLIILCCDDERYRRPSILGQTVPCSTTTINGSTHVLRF
Structure (SMILES),"effect on scopolamine-induced cognitive decline when administered alone [1, 3]",effect on scopolamine-induced memory impairment [1],"effect on scopolamine-induced memory impairment, mean escape latency day 3 [1, 4]",effect on ability of rats to learn platform location when administered alone ([1]; 1 mg/kg i.p.),"effect on scopolamine-induced memory impairment, mean escape latency day 3 [1, 5]",reversal of scopolamine-induced cognitive impairment with coadministered 5-HT4 antagonist [1],also measured
"CC(C)n1c(=O)c(C(=O)N[C@H]2C[C@H]3CC[C@@H](C2)N3C[C@@H](O)CN(C)S(C)(=O)=O)cc2ccccc21 [Compound 1, 1-isopropyl-2-oxo-1,2-dihydroquinoline-3-carboxylic acid {(1S,3R,5R)-8-[(R)-2-hydroxy-3-(methanesulfonyl-methyl-amino)propyl]-8-azabicyclo[3.2.1]oct-3-yl}amide]",Neither compound 1 at a dose of 0.01 mg/kg nor donepezil at a dose of 0.1 mg/kg were found to have a significant effect,attenuated the memory impairment,achieved statistical significance,had no effect,attenuated the memory impairment,abolished,"effect on scopolamine-induced memory impairment, mean escape latency day 3 ([1]; 1 mg/kg plus scopolamine 0.5 mg/kg, listed as compound 1): had no effect"
"COC(=O)N1CCC(CN2CCC(CNC(=O)c3cccc4[nH]c(C(C)C)nc34)CC2)CC1 [Compound 2, 4-(4-{[(2-isopropyl-1H-benzoimidazole-4-carbonyl)amino]methyl}-piperidin-1-ylmethyl)piperidine-1-carboxylic acid methyl ester]",Neither compound 2 at a dose of 0.01 mg/kg nor donepezil at a dose of 0.1 mg/kg were found to have a significant effect,attenuated the memory impairment,achieved statistical significance,had no effect,had no effect,abolished,"effect of antagonist GR113808 on compound-evoked sAPPα release ([2]; 10 min 1 μM GR113808 before compound at 100 nM): completely blocked; sAPPα release, concentration dependence ([2]; HEK293 cells with human 5-HT4(d) receptors and human APP695): concentration-dependent increase; Emax ([2]; read-out: Emax (% response relative to 1 μM 5-HT)): 103%"
"COc1[nH]c2ccc(F)cc2c1C(=O)OCC1CCN(CCNS(C)(=O)=O)CC1 [GR125487, reference compound]",,,,,,,effect in Morris water maze when administered alone ([1]; GR125487 1 mg/kg i.p. alone): had no effect
"CN1[C@@H]2C[C@@H](OC(=O)[C@H](CO)c3ccccc3)C[C@H]1[C@@H]1O[C@@H]12 [Scopolamine, scopolamine hydrochloride, reference compound]",,,,,,,"attenuation of learning versus vehicle ([1]; 0.5 mg/kg i.p., p<0.025): statistically significant attenuation of learning"
"COc1cc2c(cc1OC)C(=O)C(CC1CCN(Cc3ccccc3)CC1)C2 (stereo not shown) [donepezil, donepezil hydrochloride, reference compound]",,,,,,,"effect on scopolamine-induced cognitive decline when administered alone ([1]; 0.1 mg/kg plus scopolamine 0.5 mg/kg, hydrochloride): Neither compound 1 at a dose of 0.01 mg/kg nor donepezil at a dose of 0.1 mg/kg were found to have a significant effect; also recorded: Neither compound 2 at a dose of 0.01 mg/kg nor donepezil at a dose of 0.1 mg/kg were found to have a significant effect; reversal of scopolamine-induced cognitive deficit, mean escape latency day 3 ([1]; 3 mg/kg i.p. plus scopolamine 0.5 mg/kg): statistically significant reversal; effect on ability of rats to learn platform location when administered alone ([1]; 3 mg/kg i.p.): had no effect; reversal of scopolamine-induced cognitive deficit, mean escape latency day 3 ([1]; 0.3-3 mg/kg i.p. plus scopolamine 0.5 mg/kg i.p.): dose-dependent manner"
